Data taken from PubChem BioAssay AID179 (DTP/NCI, 2004).
Calls of active or inactive are those of the source.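 Rule for the calls: active = compounds giving half or more protection of infected cells from virus-caused growth loss, again on retest; inactive = the rest.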

Tested on: CEM cells HIV-1 protection, formazan growth assay
Experiment: NCI AIDS Antiviral Assay
Conditions: for IC50: measured here: growth of uninfected CEM cells
Summary of the method: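 CEM (human) cells, HIV-1 infected vs uninfected, 5-point dosing, formazan growth read-out. Retest threshold 50% protection.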

| SMILES | EC50 [µM] | IC50 [µM] | outcome |
| --- | --- | --- | --- |
| Cc1ccc(C2(O)c3cccc4cccc(c34)C2(O)c2ccc(C)cc2)cc1 (stereo not drawn) | > 200 | 13.5 |  |
| O=C1c2c(O)cc(O)cc2O[C@@]12c1c(cc(O)c3c1O[C@H](c1ccc(O)cc1)[C@@H](O)C3)O[C@@H]2c1ccc(O)cc1 | 2.57 | 50.1 |  |
| Nc1ccc(N=Nc2ccc(-c3ccc(N=Nc4c(S(=O)(=O)O)cc5cc(S(=O)(=O)O)c(N=Nc6ccccc6)c(O)c5c4N)cc3)cc2)c2ccc(S(=O)(=O)O)cc12 |  |  | inactive |
| C=C1C(=O)O[C@H]2[C@H](OC(C)=O)[C@@H](C)CCC/C(C)=C/CC[C@@]3(C)O[C@@H]3C[C@@H]12 | > 126 | 5.62 |  |
| S=C1NC(c2cccs2)N2C(=S)NC(c3cccs3)N12 (stereo not drawn) | > 200 | > 200 |  |
| C/C(NNC(=O)c1ccccc1O)=C1\C=Nc2ccccc2S1 | > 15.8 | 0.0794 |  |
| CO/C(N)=C(\C#N)N=Cc1ccccc1 | > 200 | 105 |  |
| Oc1ccc2cc(SSc3ccc4cc(O)ccc4c3)ccc2c1 | > 200 | 8.13 |  |
| O=P1(Nc2ccc(/C=C3\C=Cc4ccccc43)cc2)NCCCO1 (stereo not drawn) | > 39.8 | 22.9 |  |
| Cc1cc(NS(=O)(=O)c2ccc(NC(=O)c3cccc4c(=O)c5ccccc5[nH]c34)cc2)no1 |  |  | inactive |
| CCOP(=O)(OCC)C(C1OC(n2ccc(=O)[nH]c2=O)C(O[Si](C)(C)C(C)(C)C)C1O[Si](C)(C)C(C)(C)C)N(C)O (stereo not drawn) | > 200 | 4.79 |  |
| CCOC(=O)CCC(NC(=O)OCc1ccccc1)C(=O)NC(CCC(=O)OCC)C(=O)NC(CCC(=O)OCC)C(=O)NC(CCC(=O)OCC)C(=O)NC(CCC(=O)OCC)C(=O)NC(CCC(=O)OCC)C(=O)NC(CCC(=O)OCC)C(=O)NC(CCC(=O)OCC)C(=O)NC(CCC(=O)OCC)C(=O)NC(CCC(=O)OCC)C(=O)NC(CCC(=O)OCC)C(=O)NC(CCC(=O)OCC)C(=O)OCC (stereo not drawn) |  |  | inactive |
| CCCC(=O)N[C@@H](Cc1cc(I)c(O)c(I)c1)C(=O)NCCCNCCCCNCCCNC(=O)[C@@H](N)CCCN=C(N)N | > 100 | 44.7 |  |
| O=C1CC(c2ccccc2)S(=O)(=O)c2ccccc2N1 (stereo not drawn) | > 200 | > 200 |  |
| CCCC1(NC(=O)C(F)(F)F)CC(OC)OC2COC(c3ccccc3)OC21 (stereo not drawn) | > 200 | > 200 |  |
| COc1ccc(-c2cc(-c3ccccc3)[nH]c(=S)c2C#N)cc1 | > 200 | 67.6 |  |
| C#CC1NC(=O)C1N(CC)CC (stereo not drawn) |  |  | inactive |
| CC[C@H](NC(=O)OC(C)(C)C)C(=O)NCP(=O)(OCc1ccc([N+](=O)[O-])cc1)OCc1ccc([N+](=O)[O-])cc1 | > 200 | 33.9 |  |
| COC1/C=C/OC2(C)Oc3c(C)c(O)c4c(O)c(c(/C=N/N5CCCN(C)CC5)c(O)c4c3C2=O)NC(=O)/C(C)=C\C=C\C(C)C(O)C(C)C(O)C(C)C(OC(C)=O)C1C (stereo not drawn) | > 200 | 89.1 |  |
| COc1cccc(N(CN2CC=CC2=O)C(C)=O)c1 |  |  | inactive |
| O=[N+]([O-])/N=c1/nc2scc(-c3ccc([N+](=O)[O-])cc3)n2s1 | > 200 | 29.5 |  |
| O=C1c2c(O)cccc2Cc2cccc(O)c21 |  |  | inactive |

| SMILES | EC50 [µM] | IC50 [µM] | outcome |
| --- | --- | --- | --- |
| COc1ccc2c(=O)c(S)coc2c1 | > 200 | 30.2 |  |
| O=c1ccc2ccccc2n1Cc1ccc2ccccc2n1 | > 200 | 148 |  |
| O=C1C2C3C=C4c5ccccc5N(c5ccccc5)C4(C2C(=O)N1c1ccc(Cl)cc1)[C@H]1C(=O)N(c2ccc(Cl)cc2)C(=O)[C@@H]31 (stereo partly drawn) | > 3.16 | > 3.16 |  |
| COC1(OC)C2(Cl)CCC1(Cl)C(OC(C)=O)C2 (stereo not drawn) | > 200 | 145 |  |
| Cc1ccc(NC2=NCCS2)c(C)c1 | > 200 | > 200 |  |
| CC(=O)N(C(=O)CC(=O)N1N=C(C)C(N=Nc2cccc([N+](=O)[O-])c2)C1=O)c1ccc(Cl)cc1 (stereo not drawn) | > 170 | 72.4 |  |
| N#CC(C#N)=Cc1c(O)ccc2ccccc12 | > 200 | 9.77 |  |
| Nn1c(CCCCCCCCc2nnc(COc3ccc(Cl)cc3)n2N)nnc1COc1ccc(Cl)cc1 | > 200 | 85.1 |  |
| C1OC2OCC1O2 | > 2450 | > 2450 |  |
| O=S(=O)([O-])[O-].O=c1[nH]cnc2nc[n-]c12.[Cu+2].[OH3+].[OH3+] | > 10.7 | > 10.7 |  |
| CC1C(=O)N=C2C(=CN(Cc3ccccc3)c3ccccc32)C(=O)N1C (stereo not drawn) |  |  | inactive |
| CCC1C(c2ccccc2)=CCC(C(=O)O)C1C (stereo not drawn) | > 200 | > 200 |  |
| OC12COc3ccccc3C1Oc1ccccc1C2 (stereo not drawn) |  |  | inactive |
| Cc1c(NC(=O)C(=O)N=NC(=O)c2ccncc2)c(O)c2ccccc2c1O |  |  | inactive |
| CNC(=S)/N=C(\N)N(C)C |  |  | inactive |
| Cc1c([N+](=O)[O-])c(=O)oc2c1ccc1occc(=O)c12 | > 132 | 117 |  |
| Cc1ccnc2n[nH]nc12 | > 1860 | 372 |  |
| O=C(O)c1sccc1Cc1ccsc1 | > 200 | > 200 |  |
| CC(C)(C)C(=O)/C=C/c1ccccc1Cl | > 23.4 | > 23.4 |  |
| CCCCN(CCCC)CCCCCCCN1CCCc2cc(OC)ccc21 | > 200 | 17.8 |  |
| O=Nc1ccccc1 | > 200 | > 200 |  |
| Cc1nc2c(c(=O)[nH]1)OCN(C)C2 | > 200 | 148 |  |
